Where “and” joins values, the source holds several entries; their conditions need not be identical. Equal values may be shown once. Read-outs that look alike come from different tables or passages of the source.
Legend:
[1] = test system: OvCar8, A2780, Igrov-1 cells; assay: Metabolism in ovarian cancer cell culture supernatants (HPLC); type: in vitro ADME, human; settings: for total metabolism (sum of all detected metabolites as percentage of the substrate): supernatants of OvCar8, A2780, Igrov-1 after treatment
Procedure: After treatment, the supernatants of the cell cultures were collected in order to quantify metabolites by HPLC. In Figure 3 C, the total metabolism in % (as the sum of all detected metabolites as a percentage of the substrate) is shown in dependency of the respective treatment. Overall, P8-D6 is always the most metabolized substrate at ∼5%, followed by P8-D6 N-oxide at ∼2.6% and P8-D6 mono at ∼1%. […] In contrast to previous incubation with homogenized tissue (Figure ), P8-D6 was mostly metabolized to P8-DO (2.05%) and to a lesser extent to P8-D6 mono and P8-D6 N-oxide. P8-D6 mono was converted to P8-DO and less extensively metabolized to P8-D6 and a new unknown metabolite (0.10%). Due to the increased polarity and, therefore, decreased HPLC retention time, a nitrone would be thinkable. Such reactions have been described in the literature. − However, due to the very limited content of this metabolite, it could not be identified further. During incubation with P8-D6 N-oxide, P8-D6 features the major metabolite, while P8-D6 mono and P8-DO were formed to a lesser amount. The protein expression of Cyp3A4, mARC1 and 2, and FMO3 in the cell lines used was analyzed by Western blot (Figure 3 E).
The human ovarian cancer cell lines OvCar8, Igrov-1, and A2780, purchased from ATCC, were maintained in RPMI1640 medium, including L-glutamine supplemented with 10% fetal bovine serum and 60 IU/mL penicillin–streptomycin. Cells were grown at 37 °C and 5% CO2 in a humidified incubator and subcultivated at a confluency of 70–80%. Cell line authenticity was checked by STR profiling as described previously, and mycoplasma contamination was routinely investigated using MycoAlert (Lonza).

[2] = In vivo plasma pharmacokinetics after i.v. and p.o. administration of P8-D6; parameters: species or system Sprague–Dawley rats; settings: for AUC(0-t): read-out: AUC0–10 h (converted)
Procedure: The plasma concentration–time profiles and pharmacokinetic parameters of P8-D6 after p.o. and i.v. administration are presented in Figure B and Table .
Compartment models were used to calculate the pharmacokinetic parameters and plasma curves.
Since a pure drug solution of P8-D6 was administered in this study, liberation (release from the dosage form) could be neglected; therefore, first-order kinetics were assumed. […] Based on our in vivo results and assumptions, P8-D6 is first homogeneously distributed in the central compartment after application before being transferred to the peripheral compartment. Elimination occurs via the central compartment. The substance transport into, out of, and between the different compartments is characterized by the macro rate constants.
Starting with the i.v. administration, a two-compartment pharmacokinetic model was chosen that considers the biexponential decay of a fast initial first-order distribution and a slow terminal first-order elimination phase (supplied as Figure S4A,C). By this method, a fictitious initial P8-D6 plasma concentration c 0/i.v. of 4.43 μM at the time of injection was calculated (A (3.27 μM) + B (1.16 μM)). This fictitious plasma concentration corresponds to ∼1% (3.95 μmol in 8.8 mL of the theoretical plasma concentration and matches the plasma protein binding of P8-D6 of about 99% (Figure A). Based on the dose and c 0, a central V c of 0.891 L was calculated. Since the macro rate constant for distribution is considerably greater (37-fold) than the one for elimination, the elimination is the rate-determining step according to first-order kinetics.
To cope with the overlapping curves of absorption and elimination after p.o. administration, compartmental models are used (supplied as Figure S4B,D). However, since only two to three data points exist (depending on the definitive start time of the elimination) during the elimination and distribution phase (120–600 min), no differentiation between these two phases can be described by our data (as shown by the residual method in Figure S4B). Therefore, a one-compartment model according to the Bateman function with both first-order invasion and elimination rates was assumed for the p.o. administration of P8-D6 (supplied as Figure S4D). […] A fictitious initial plasma concentration, c 0/p.o. = 2.21 μM, was calculated.
Effects of the diet were reduced by fasting the rats overnight prior to P8-D6 application. Blood samples were taken at 5, 15, 30, 60, 120, 180, 300, 360, and 600 min after i.v. application or 30, 60, 90, 120, 240, and 600 min after p.o. application. Immediately afterward, the plasma was collected by centrifugation at 2000 g for 10 min. The rats were housed in metabolic cages to collect the urine in specially attached containers. Urine and feces samples were collected every 2 h. The rats were euthanized by CO2 inhalation. The harvested organs (kidney, spleen, lung, liver, and colon) were weighed and submerged in liquid nitrogen. All collected samples were stored at −80 °C until analysis.
50 μL of plasma was mixed with 100 μL of an ice-cold mixture of acetonitrile/methanol (2:1) and stirred in the vortex for 5 min. The suspension was centrifuged at 15000 g for 10 min, and 50 μL of the supernatant was injected into the HPLC (chapter Chromatographic Conditions). Calibration/control samples were prepared the same way with plasma samples collected from equal Sprague–Dawley rats from nonpharmacological studies. For calibration, the matrix was spiked with a defined concentration of the analyte. Final concentrations ranged from 0 μM to 5 μM. Triple determinations were performed and prepared on each respective day. LoD: 0.02 μM, LoQ: 0.05 μM (plasma).
For data analysis and statistics, Microsoft Excel 2019 and GraphPad Prism (version 10.2, GraphPad Software Inc., San Diego, California), commercially available software, were used. All data are expressed either as mean ± SEM or ± SD. […]

[3] = male, Sprague-Dawley, rat, plasma, iv, 10 mg/kg, after i.v. administration of P8-D6 10 mg/kg BW, read-out: c max/i.v. of metabolite in plasma
[4] = male, Sprague-Dawley, rat, plasma, po, 50 mg/kg, after p.o. administration of P8-D6 50 mg/kg BW, read-out: c max/p.o. of metabolite in plasma

For CNCCOc1nc2c3cnccc3cc(-c3cc(OC)c(OC)c(OC)c3)c2c2ccncc12 [P8-D6 mono], the “total metabolism (sum of all detected metabolites as percentage of the substrate)” value [1] was ~1%, the Cmax [2, 3] was 0.114 µM and the Cmax [2, 4] was 0.341 µM.

In the case of COc1cc(-c2cc3ccncc3c3nc(OCC[N+](C)(C)[O-])c4cnccc4c23)cc(OC)c1OC [P8-D6 N-oxide], the “total metabolism (sum of all detected metabolites as percentage of the substrate)” value [1] is reported as ~2.6%, the Cmax [2, 3] is reported as 0.228 µM and the Cmax [2, 4] is reported as 0.054 µM.

With COc1cc(-c2cc3ccncc3c3[nH]c(=O)c4cnccc4c23)cc(OC)c1OC [P8-DO] the “metabolite formed from P8-D6” value ([1]; OvCar8 supernatant) was 2.05% and the detection in plasma ([2]; after administration of P8-D6) was “no P8-DO was detected”.

In the case of COc1cc(-c2cc3ccncc3c3nc(OCCN(C)C)c4cnccc4c23)cc(OC)c1OC [P8-D6, 6-(N,N-dimethyl-2-aminoethoxy)-11-(3,4,5-trimethoxyphenyl)-pyrido[3,4-c][1,9]-phenanthroline], the “total metabolism (sum of all detected metabolites as percentage of the substrate)” value [1] is reported as ~5%, the CLi.v. ([2]; i.v.) is reported as 6.34 mL/min and the “apparent volume of distribution” value ([2]; i.v.) is reported as 57.69 L/m^2. The “fictitious plasma concentration as share of theoretical plasma concentration” value ([2]; i.v.) was ~1%, the “macro rate constant for distribution greater than for elimination” value ([2]; i.v.) was 37 fold and the c min ([2]; i.v. 10 mg/kg BW, plasma, 10 mg/kg) was 0.35 µM and 0.35 ± 0.05 µM. The CL ([2]; i.v., total body surface of 0.0357 m^2) was 10.66 L/(h m^2), the “Macro rate constant ß” value ([2]; i.v., two-compartment model) was 0.002 min^–1 and the “Macro rate constant α” value ([2]; i.v., two-compartment model) was 0.073 min^–1. For the same compound, the “coefficient A” value ([2]; i.v., two-compartment model) was 3.27 µM, the “coefficient B” value ([2]; i.v., two-compartment model) was 1.16 µM and the clearance ([2]; male, Sprague-Dawley, rat, plasma, iv, 10 mg/kg body weight) was 6.33 mL/min. For the same compound, the half-life ([2]; male, Sprague-Dawley, rat, plasma, iv, 10 mg/kg body weight, i.v., read-out: Initial t 1/2) was 0.158 h, the half-life ([2]; male, Sprague-Dawley, rat, plasma, iv, 10 mg/kg body weight, i.v., read-out: Terminal t 1/2) was 5.78 h and the Vd ([2]; male, Sprague-Dawley, rat, plasma, iv, 10 mg/kg body weight, i.v., read-out: V d) was 2.06 L and 9.36 L/kg. For the same compound, the Vd ([2]; male, Sprague-Dawley, rat, plasma, iv, 10 mg/kg body weight, i.v., read-out: V ss) was 2.95 L and 13.4 L/kg, the half-life ([2]; male, Sprague-Dawley, rat, plasma, iv, 10 mg/kg body weight, i.v., read-out: plasma half-life t 1/2 (converted)) was 5.8 h and the C0 ([2]; male, Sprague-Dawley, rat, plasma, iv, 10 mg/kg body weight, i.v., at the time of injection, two-compartment model, read-out: fictitious initial plasma concentration c 0/i.v.) was 4.43 µM. It also gave a Cmax ([2]; male, Sprague-Dawley, rat, plasma, iv, 10 mg/kg, i.v. 10 mg/kg BW, plasma, read-out: c max) of 3.95 ± 0.42 µM, a Tmax ([2]; male, Sprague-Dawley, rat, plasma, iv, 10 mg/kg, i.v. 10 mg/kg BW, read-out: t max) of 0 h and an AUC(0-t) ([2]; male, Sprague-Dawley, rat, plasma, iv, i.v. 10 mg/kg BW) of 7.49 µM·h. For the same compound, the bioavailability ([2]; male, Sprague-Dawley, rat, plasma, iv, i.v. 10 mg/kg BW, read-out: Bioavailability) was 100%, the bioavailability ([2]; male, Sprague-Dawley, rat, plasma, oral, 50 mg/kg body weight, p.o. 50 mg/kg BW vs i.v. 10 mg/kg BW, read-out: Oral bioavailability) was 21.5% and the half-life ([2]; male, Sprague-Dawley, rat, plasma, po, 50 mg/kg body weight, p.o., read-out: Terminal t 1/2) was 8.64 h. For the same compound, the half-life ([2]; male, Sprague-Dawley, rat, plasma, po, 50 mg/kg body weight, p.o., read-out: plasma half-life t 1/2 (converted)) was 8.6 h, the k el ([2]; male, Sprague-Dawley, rat, plasma, po, 50 mg/kg body weight, p.o., one-compartment model, read-out: Macro rate constant k e) was 2.17e-05 s⁻¹ and the C0 ([2]; male, Sprague-Dawley, rat, plasma, po, 50 mg/kg body weight, p.o., one-compartment model, read-out: fictitious initial plasma concentration c 0/p.o.) was 2.21 µM. For the same compound, the Cmax ([2]; male, Sprague-Dawley, rat, plasma, po, 50 mg/kg, p.o. 50 mg/kg BW, compartment model, read-out: c max (calculated)) was 1.25 µM, the Tmax ([2]; male, Sprague-Dawley, rat, plasma, po, 50 mg/kg, p.o. 50 mg/kg BW, compartment model, read-out: t max (calculated) (converted)) was 1.77 h and the Cmax ([2]; male, Sprague-Dawley, rat, plasma, po, 50 mg/kg, p.o. 50 mg/kg BW, plasma, read-out: c max (measured)) was 1.16 µM. It also gave a Tmax ([2]; male, Sprague-Dawley, rat, plasma, po, 50 mg/kg, p.o. 50 mg/kg BW, read-out: t max (measured) (converted)) of 2 h, an AUC(0-t) ([2]; male, Sprague-Dawley, rat, plasma, po, p.o. 50 mg/kg BW) of 8.03 µM·h and a CL ([2]; p.o.) of 0.24 L/h. The CLp.o. ([2]; p.o.) was 3.96 mL/min, the “apparent volume of distribution” value ([2]; p.o.) was 82.92 L/m^2 and the c min ([2]; p.o. 50 mg/kg BW, plasma, 50 mg/kg) was 0.59 µM and 0.59 ± 0.06 µM. The “Macro rate constant k a” value ([2]; p.o., one-compartment model) was 0.031 min^–1, the CL ([2]; p.o., total body surface of 0.0357 m^2) was 6.65 L/(h m^2) and the V ss ([2]; total body surface of 0.0357 m^2) was 82.69 L/m^2.

Source: PMC11997890, “In Vivo and In Vitro Pharmacokinetic Studies of a Dual Topoisomerase I/II Inhibitor” (ACS Pharmacology & Translational Science, 2025)
